From US7169890B2, “Process for the production of ramoplanin-like amide derivatives” (Vicuron Pharmaceuticals Inc., priority 2002, dated 2007)

Legend:
[1] = system: Staphylococcus aureus Smith SA 819; assay: Murine septicaemia, Staphylococcus aureus Smith SA 819 systemic infection; format: in vivo; conditions: mice, i.p. infection, s.c. treatment, survival to day 7
Experimental: As an example, therapeutical effectiveness of some representative compounds of formula (Ia) in murine septicaemia caused by intraperitoneally administered Staphylococcus aureus Smith SA 819 was evaluated in comparison with ramoplanin. Vancomycin was chosen as reference drug for the evaluation of in vivo antiinfective activity.
Mice were infected intraperitoneally with Staphylococcus aureus Smith SA 819. Untreated animals died within 24 hours after infection. Groups of eight mice each were treated s.c. with different dose levels of ramoplanin or of each test compound, starting 10–20 min after challenge. Reference drugs was s.c. injected vancomycin.

[2] = system: methicillin-resistant Staphylococcus aureus SA 613; assay: Murine infection, methicillin-resistant Staphylococcus aureus SA 613; format: in vivo; conditions: mice, i.p. infection, s.c. treatment, survival to day 7
Experimental: Mice were infected intraperitoneally with ca 10^7 CFU/mouse of Staphylococcus aureus SA 613. Untreated animals died within 24 hours after infection. Groups of eight mice each were treated iv or s.c. with different dose levels of ramoplanin or each test compound, starting 10–20 minutes after challenge. Ramoplanin and vancomycin were used as reference drugs.

[3] = system: 145 Candida albicans SKF2270; assay: MIC, broth microdilution NCCLS (isolated compounds or reaction solutions); format: cell-based; conditions: for MIC: 145 Candida albicans SKF2270, isolated compounds
Experimental: (§1) The antimicrobial activity in vitro of the compounds obtained according to the process of this invention was evaluated against a panel of clinical isolates of methicillin-sensitive, methicillin-resistant and vancomycin-intermedie Staphylococcus aureus, Van-S and Van-A Enterococcus faecium and faecalis, Streptococcus pyogenes, Escherichiae coli and Candida albicans.
(§2) MICs were performed using the broth microdilution methodology following the NCCLS procedure (NCCLS Document M7-A4 Vol.17 No.2 January 1997) in presence of 0.02% albumine bovine serum with inocula of approximately 5×10^5 cfu/mL. The media employed included cation-adjusted Mueller-Hinton (MH) broth (Difco Laboratories, Detroit, Mich., USA) supplemented or not with 30% (v/v) bovine serum. Tests were read after 24 h incubation at 37° C.
(§3) A further set of experiments for measuring the antimicrobial activity in vitro of a series of compounds of formula (Ia) in comparison with the known compound 1 was carried out directly on the solutions deriving from the reaction of the starting acid of formula (IV) with the deacyl ramoplanin of formula (III) according to the method A described in the Examples.
(§4) The reaction solutions (resulting from the addition of 1M hydrochloric acid as described in Method A) were diluted at 6000 mcg/ml by adding 0.1% peptone Difco Laboratories, (Detroit, Mich., USA) plus 0.9% NaCl (PBS). The resulting solutions were diluted with water at the desired concentration to perform the test that was then carried out in the same way described for the isolated compounds reported in Table 2.

[4] = system: 569 Entero. faecium clin. isolate Van-A; assay: as above; format: cell-based, Enterococcus faecium; conditions: for MIC: 569 Entero. faecium clin. isolate Van-A, isolated compounds
Experimental: as §1, §2, §3, §4

[5] = system: 3798 Staph. aureus clin. isolate VISA; assay: as above; format: cell-based, Staphylococcus aureus; conditions: for MIC: 3798 Staph. aureus clin. isolate VISA, isolated compounds
Experimental: as §1, §2, §3, §4

[6] = system: 3797 Staph. aureus clin. isolate VISA Met-R; assay: as above; format: cell-based, Staphylococcus aureus; conditions: for MIC: 3797 Staph. aureus clin. isolate VISA Met-R, isolated compounds
Experimental: as §1, §2, §3, §4

[7] = system: 613 Staph. aureus clin. isolate Met-R; assay: as above; format: cell-based, Staphylococcus aureus; conditions: for MIC: 613 Staph. aureus clin. isolate Met-R, isolated compounds
Experimental: as §1, §2, §3, §4

819 Staph. aureus Smith = assay: as above; format: cell-based, Staphylococcus aureus; conditions: for MIC: 819 Staph. aureus Smith, isolated compounds
Experimental: as §1, §2, §3, §4

[8] = system: 560 Entero. faecalis VanA; assay: as above; format: cell-based, Enterococcus faecalis; conditions: for MIC: 560 Entero. faecalis VanA, isolated compounds
Experimental: as §1, §2, §3, §4

47 E coli SKF12140 = assay: as above; format: cell-based, Escherichiae coli; conditions: for MIC: 47 E coli SKF12140, isolated compounds
Experimental: as §1, §2, §3, §4

49 Strep. pyogenes C203 = assay: as above; format: cell-based, Streptococcus pyogenes; conditions: for MIC: 49 Strep. pyogenes C203, isolated compounds
Experimental: as §1, §2, §3, §4

blood cells [9] = assay: Haemolytic potential on blood cells (isolated compounds); format: cell-based, rats
Experimental: The ramoplanin-like amide derivatives were dissolved at 40.000 mcg/ml in dimethyl sulfoxide (DMSO) and then diluted 1:5 in 0.1% peptone Difco Laboratories, (Detroit, Mich., USA) plus 0.9% NaCl (PBS).
(§5) Whole blood sample was obtained from the dorsal aorta of rats and diluted 1:100 in PBS before the test.
Group 2—PBS as physiologic haemolysis control
Group 3—saponin (Sigma), solution at 3% in distilled water, as 100% haemolysis control.
(§6) The test groups were diluted 1:5 in blood cells and incubated in water bath at 37° C. for 45 minutes.
(§7) After the incubation time the samples were centrifuged at 2500–3000 g for 10 minutes, and 0.1 ml of each supernatant was diluted in 900 mcl of Drabkin's reagent (Sigma).
(§8) The optical density (OD) of the samples was measured at 540 nm versus a blank preparation of Drabkin's reagent plus 0.1 ml of PBS.
The test was performed in triplicate.
(§9) The percentage of haemolysis was calculate using the formula Δx/Δt×100=% of haemolysis
Δx=mean value of OD540 for each concentration tested (GROUP 1–2)
Δt=mean value of OD540 for 100% haemolysis control (GROUP 3).
(§10) The haemolysis was considered significant when exceeding at least 3 times the haemolytic value of blank control (GROUP 2).

[10] = system: 568 Entero. faecium (isogenic of L569); assay: MIC, broth microdilution NCCLS (isolated compounds or reaction solutions); format: cell-based, Enterococcus faecium
Experimental: as §1, §2, §3, §4

blood cells [11] = assay: Haemolytic effect (reaction solutions); format: cell-based, rats
Experimental: as §5, §6, §7, §8, §9, §10
as §3, with “haemolytic effect” for “antimicrobial activity in vitro”
The reaction solutions (resulting from the addition of 1M hydrochloric acid as described in Method A) were diluted at 1200 mcg/ml by adding 0.1% peptone Difco Laboratories, (Detroit, Mich., USA) plus 0.9% NaCl (PBS).

[12] = system: 559 Entero. faecalis (isogenic of L 560); assay: MIC, broth microdilution NCCLS (isolated compounds or reaction solutions); format: cell-based, Enterococcus faecalis
Experimental: as §1, §2, §3, §4

[13] = reaction solutions, +30% bovine serum

Question: With `CN[C@H](CC(C)C)C(=O)N[C@H]1C(=O)N[C@@H](CC(N)=O)C(=O)N[C@H]2C(=O)N[C@H]3C(=O)N[C@H](C(=O)N[C@H](C(=O)O)c4cc(O)cc(O)c4-c4cc3ccc4O)[C@H](O)c3ccc(c(Cl)c3)Oc3cc2cc(c3O[C@@H]2O[C@H](CO)[C@@H](O)[C@H](O)[C@H]2O[C@H]2C[C@](C)(N)[C@H](O)[C@H](C)O2)Oc2ccc(cc2Cl)[C@H]1O` [Vancomycin] as the compound, how does the ED50 [1] read?
Answer: The ED50 was 0.64 mg/kg/dose.

Question: What about the ED50 [2] of the same compound?
Answer: The ED50 was 8 mg/kg/dose.

Question: For ramoplanin factor A1 [Compound 35], which MIC [3] is on record?
Answer: The MIC was over 128 µg/mL.

Question: And the MIC ([4]; +30% bovine serum)?
Answer: Its MIC is 1 µg/mL.

Question: And the MIC [4]?
Answer: Its MIC is under 0.125 µg/mL.

Question: And the MIC ([5]; +30% bovine serum)?
Answer: The MIC was 2 µg/mL.

Question: And the MIC [5]?
Answer: Its MIC is 0.5 µg/mL.

Question: What about the MIC [6] of the same compound?
Answer: Its MIC is 1 µg/mL.

Question: What about the MIC [7] of the same compound?
Answer: Its MIC is under 0.125 µg/mL.

Question: What about the MIC (819 Staph. aureus Smith; +30% bovine serum) of the same compound?
Answer: The MIC was 0.5 µg/mL.

Question: What about the MIC (819 Staph. aureus Smith; MH broth) of the same compound?
Answer: The MIC was under 0.125 µg/mL.

Question: And the MIC ([8]; +30% bovine serum)?
Answer: The MIC was 0.5 µg/mL.

Question: What about the MIC [8] of the same compound?
Answer: The MIC was under 0.125 µg/mL.

Question: What about the MIC (47 E coli SKF12140) of the same compound?
Answer: The MIC was over 128 µg/mL.

Question: And the MIC (49 Strep. pyogenes C203)?
Answer: Its MIC is under 0.125 µg/mL.

Question: What about the “% lyis at 100 mcg/ml” value (blood cells [9]) of the same compound?
Answer: Its value is 58.99%.

Question: And the “% lysis at 200 mcg/ml” value (blood cells [9])?
Answer: Its value is 80.44%.

Question: And the “% lysis at 400 mcg/ml” value (blood cells [9])?
Answer: Its value is 92.82%.

Question: What does the source list for “tetrahydroderivative of ramoplanin factor A1 [Compound 5]”?
Answer: MIC [3]: >32 µg/mL; MIC ([10]; 568 Entero. faecium (isogenic of L569), isolated compounds): 0.25 µg/mL; MIC ([4]; +30% bovine serum): 4 µg/mL; MIC [4]: 0.125 µg/mL; MIC [5]: 2 µg/mL; MIC [6]: 4 µg/mL; MIC [7]: 0.5 µg/mL; MIC (819 Staph. aureus Smith; +30% bovine serum): 4 µg/mL; MIC (819 Staph. aureus Smith; MH broth): 0.25 µg/mL; MIC ([8]; +30% bovine serum): 2 µg/mL; MIC [8]: 0.06 µg/mL; MIC (47 E coli SKF12140): >32 µg/mL; MIC (49 Strep. pyogenes C203): <0.03 µg/mL

Question: Which results are given for ramoplanin factor A2 [Compound 1]?
Answer: MIC [3]: >32 µg/mL; MIC 145 Candida albicans SKF2270 ([3]; reaction solutions): >128 µg/mL; MIC 568 Entero. faecium (isogenic of L569) ([10]; reaction solutions, no serum): ≦0.125 mcg/ml; MIC ([4]; +30% bovine serum): 2 µg/mL; MIC [4]: 0.125 µg/mL; MIC 569 Entero. faecium clin. isolate Van-A +30% bovine serum [4, 13]: 2 µg/mL; MIC 569 Entero. faecium clin. isolate Van-A ([4]; reaction solutions, no serum): ≦0.125 mcg/ml; % lysis at 300 mcg/ml (blood cells [11]; 300 mcg/ml): 74.39%; % lysis at 600 mcg/m (blood cells [11]; 600 mcg/m): 88.87%; MIC ([5]; +30% bovine serum): 16 µg/mL; MIC [5]: 1 µg/mL; MIC 3798 Staph. aureus clin. isolate VISA +30% bovine serum [5, 13]: 8 µg/mL; MIC 3798 Staph. aureus clin. isolate VISA ([5]; reaction solutions, no serum): 1 µg/mL; MIC [6]: 2 µg/mL; MIC 3797 Staph. aureus clin. isolate VISA Met-R ([6]; reaction solutions, no serum): 2 µg/mL; MIC [7]: 0.25 µg/mL; MIC 613 Staph. aureus clin. isolate Met-R ([7]; reaction solutions, no serum): 0.25 µg/mL; MIC (819 Staph. aureus Smith; +30% bovine serum): 4 µg/mL; MIC (819 Staph. aureus Smith; MH broth): 0.125 µg/mL; MIC 819 Staph. aureus Smith +30% bovine serum (819 Staph. aureus Smith; [13]): 2 µg/mL; MIC 819 Staph. aureus Smith (819 Staph. aureus Smith; reaction solutions, no serum): ≦0.125 mcg/ml; MIC ([8]; +30% bovine serum): 2 µg/mL; MIC [8]: 0.06 µg/mL; MIC 560 Entero. faecalis VanA +30% bovine serum [8, 13]: 2 µg/mL; MIC 560 Entero. faecalis VanA ([8]; reaction solutions, no serum): ≦0.125 mcg/ml; MIC ([12]; 559 Entero. faecalis (isogenic of L 560), isolated compounds): 0.06 µg/mL; MIC 559 Entero. faecalis (isogenic of L 560) ([12]; reaction solutions, no serum): ≦0.125 mcg/ml; MIC (47 E coli SKF12140): >32 µg/mL; MIC 47 E coli SKF12140 (47 E coli SKF12140; reaction solutions): >128 µg/mL; MIC (49 Strep. pyogenes C203): <0.03 µg/mL; MIC 49 Strep. pyogenes C203 (49 Strep. pyogenes C203; reaction solutions, no serum): ≦0.125 mcg/ml; % lyis at 100 mcg/ml (blood cells [9]): 86.04%; % lysis at 200 mcg/ml (blood cells [9]): 100%; % lysis at 400 mcg/ml (blood cells [9]): 100%
